Test results taken from publication PMC9154192 (PLoS Biology, 2022).
In brackets after ≈: the same amount, converted by molar mass. Read-outs that look alike come from different tables or passages of the source.

What was measured:
M. fortuitum = assay: microbe, parasite or virus in culture; format: cell-based, Mycobacterium fortuitum; settings: Mycolicibacterium fortuitum
M. goodie = assay: microbe, parasite or virus in culture; format: cell-based; settings: Mycobacterium
M. intracellulare = assay: microbe, parasite or virus in culture; format: cell-based; settings: Mycobacterium intracellulare
Shigella boydii = assay: Broth dilution MIC (CLSI); format: cell-based
Excerpt: (§1) Bacteria (Acinetobacter baumannii NCCP 14782, Citrobacter freundii NCCP 14766, Enterobacter aerogenes NCCP 14761, Escherichia coli NCCP 14762, Escherichia coli O157 NCCP 14541, Klebsiella pneumoniae NCCP 14764, Proteus mirabilis NCCP 14763, Proteus vulgaris NCCP 14765, Pseudomonas aeruginosa NCCP 14781, Salmonella Enteritidis NCCP 14771, Salmonella Paratyphi A NCCP 14759, Salmonella Typhimurium NCCP 16207, Serratia marcescens NCCP 14770, Shigella boydii NCCP 14745, Shigella dysenteriae NCCP 14746, Shigella flexneri NCCP 14744, Shigella sonnei NCCP 14773, Bacillus subtilis NCCP 11101, Corynebacterium diphtheriae NCCP 10353, Staphylococcus aureus MSSA NCCP 14780, Staphylococcus aureus MRSA NCCP 14769, Staphylococcus epidermidis NCCP 14768, Streptococcus pneumoniae NCCP 14774) and fungi (Aspergillus fumigatus NCCP 22454, Candida albicans NCCP 32557, Cryptococcus neoformans NCCP 32559, Microsporum canis NCCP 22454, Rhizopus oryzae NCCP 22458, Saccharomyces cerevisiae NCCP 32558, Trichophyton rubrum NCCP 22456) strains were obtained from the National Culture Collection for Pathogens (NCCP) (Chungbuk, Korea). The MIC of each agent was determined following the Clinical and Laboratory Standards Institute (CLSI).[40]

Proteus vulgaris = assay: Broth dilution MIC (CLSI); format: cell-based
Excerpt: as §1

Microsporum canis = assay: Broth dilution MIC (CLSI); format: cell-based
Excerpt: as §1

[1] = test system: Staphylococcus aureus, MRSA; assay: Broth dilution MIC (CLSI); format: cell-based
Excerpt: as §1

Salmonella Typhimurium = assay: Broth dilution MIC (CLSI); format: cell-based; settings: Salmonella enterica
Excerpt: as §1

Citrobacter freundii = assay: Broth dilution MIC (CLSI); format: cell-based
Excerpt: as §1

Escherichia coli O157 = assay: Broth dilution MIC (CLSI); format: cell-based
Excerpt: as §1

Escherichia coli = assay: Broth dilution MIC (CLSI); format: cell-based
Excerpt: as §1

Bacillus subtilis = assay: Broth dilution MIC (CLSI); format: cell-based
Excerpt: as §1

Enterobacter aerogenes = assay: Broth dilution MIC (CLSI); format: cell-based; settings: Klebsiella aerogenes
Excerpt: as §1

Salmonella Enteritidis = assay: Broth dilution MIC (CLSI); format: cell-based; settings: Salmonella enterica
Excerpt: as §1

Shigella dysenteriae = assay: Broth dilution MIC (CLSI); format: cell-based
Excerpt: as §1

Proteus mirabilis = assay: Broth dilution MIC (CLSI); format: cell-based
Excerpt: as §1

[2] = test system: Corynebacterium diphtheriae; assay: Broth dilution MIC (CLSI); format: cell-based
Excerpt: as §1

Rhizopus oryzae = assay: Broth dilution MIC (CLSI); format: cell-based; settings: Rhizopus arrhizus
Excerpt: as §1

Candida albicans = assay: Broth dilution MIC (CLSI); format: cell-based
Excerpt: as §1

Trichophyton rubrum = assay: Broth dilution MIC (CLSI); format: cell-based
Excerpt: as §1

Salmonella Paratyphi A = assay: Broth dilution MIC (CLSI); format: cell-based; settings: Salmonella enterica
Excerpt: as §1

Cryptococcus neoformans = assay: Broth dilution MIC (CLSI); format: cell-based
Excerpt: as §1

Klebsiella pneumoniae = assay: Broth dilution MIC (CLSI); format: cell-based
Excerpt: as §1

[3] = test system: Staphylococcus epidermidis; assay: Broth dilution MIC (CLSI); format: cell-based
Excerpt: as §1

Pseudomonas aeruginosa = assay: Broth dilution MIC (CLSI); format: cell-based
Excerpt: as §1

Shigella flexneri = assay: Broth dilution MIC (CLSI); format: cell-based
Excerpt: as §1

Streptococcus pneumoniae = assay: Broth dilution MIC (CLSI); format: cell-based
Excerpt: as §1

Aspergillus fumigatus = assay: Broth dilution MIC (CLSI); format: cell-based
Excerpt: as §1

Serratia marcescens = assay: Broth dilution MIC (CLSI); format: cell-based
Excerpt: as §1

Saccharomyces cerevisiae = assay: Broth dilution MIC (CLSI); format: cell-based
Excerpt: as §1

Acinetobacter baumannii = assay: Broth dilution MIC (CLSI); format: cell-based
Excerpt: as §1

Shigella sonnei = assay: Broth dilution MIC (CLSI); format: cell-based
Excerpt: as §1

[4] = test system: Staphylococcus aureus, MSSA; assay: Broth dilution MIC (CLSI); format: cell-based
Excerpt: as §1

M. phocaicum = assay: microbe, parasite or virus in culture; format: cell-based, Mycobacterium phocaicum; settings: Mycolicibacterium phocaicum
M. chitae = assay: microbe, parasite or virus in culture; format: cell-based, Mycobacterium chitae; settings: Mycolicibacterium chitae
[5] = test system: clinically isolated MDR, XDR, and TDR M. tuberculosis strains; assay: microbe, parasite or virus in culture; format: cell-based; settings: Mycobacterium tuberculosis
M. gilvum = assay: microbe, parasite or virus in culture; format: cell-based, Mycobacterium gilvum; settings: Mycolicibacterium gilvum
M. massiliense = assay: microbe, parasite or virus in culture; format: cell-based, Mycobacterium massiliense; settings: Mycobacteroides abscessus
M. neoaurum = assay: microbe, parasite or virus in culture; format: cell-based, Mycobacterium neoaurum; settings: Mycolicibacterium neoaurum
M. phlei = assay: microbe, parasite or virus in culture; format: cell-based, Mycobacterium phlei; settings: Mycolicibacterium phlei
M. conceptionense = assay: microbe, parasite or virus in culture; format: cell-based, Mycobacterium conceptionense; settings: Mycolicibacterium senegalense
M. avium = assay: microbe, parasite or virus in culture; format: cell-based; settings: Mycobacterium avium
M. colombiense = assay: microbe, parasite or virus in culture; format: cell-based; settings: Mycobacterium colombiense

CO[C@H]1/C=C/O[C@@]2(C)Oc3c(C)c(O)c4c(O)c(c(/C=N/N5CCN(C)CC5)c(O)c4c3C2=O)NC(=O)/C(C)=C\C=C\[C@H](C)[C@H](O)[C@@H](C)[C@@H](O)[C@@H](C)[C@H](OC(C)=O)[C@@H]1C [RIF, rifampicin, reference compound]
MIC (M. fortuitum): 0.2 µg/mL (≈ 0.243 µM) | MIC (M. goodie): 100 µg/mL (≈ 122 µM) | MIC (M. intracellulare): < 0.1 µg/mL | MIC (Shigella boydii): 0.4 µg/mL (≈ 0.486 µM) | MIC (Proteus vulgaris): 6.3 µg/mL (≈ 7.66 µM) | MIC (Microsporum canis): > 100 µg/mL | MIC [1]: 0.05 µg/mL (≈ 0.0608 µM) | MIC (Salmonella Typhimurium; TYPHIMURIUM): 12.5 µg/mL (≈ 15.2 µM) | MIC (Citrobacter freundii): 25 µg/mL (≈ 30.4 µM) | MIC (Escherichia coli O157): 3.1 µg/mL (≈ 3.77 µM) | MIC (Escherichia coli): 6.3 µg/mL (≈ 7.66 µM) | MIC (Bacillus subtilis): < 0.1 µg/mL | MIC (Enterobacter aerogenes): 6.3 µg/mL (≈ 7.66 µM) | MIC (Salmonella Enteritidis; ENTERITIDIS): 12.5 µg/mL (≈ 15.2 µM) | MIC (Shigella dysenteriae): 1.6 µg/mL (≈ 1.94 µM) | MIC (Proteus mirabilis): 3.1 µg/mL (≈ 3.77 µM) | MIC [2]: 0.05 µg/mL (≈ 0.0608 µM) | MIC (Rhizopus oryzae): > 100 µg/mL | MIC (Candida albicans): > 100 µg/mL | MIC (Trichophyton rubrum): > 100 µg/mL | MIC (Salmonella Paratyphi A; PARATYPHI): 12.5 µg/mL (≈ 15.2 µM) | MIC (Cryptococcus neoformans): > 100 µg/mL | MIC (Klebsiella pneumoniae): 6.3 µg/mL (≈ 7.66 µM) | MIC [3]: 0.05 µg/mL (≈ 0.0608 µM) | MIC (Pseudomonas aeruginosa): 25 µg/mL (≈ 30.4 µM) | MIC (Shigella flexneri): 1.5 µg/mL (≈ 1.82 µM) | MIC (Streptococcus pneumoniae): 0.05 µg/mL (≈ 0.0608 µM) | MIC (Aspergillus fumigatus): > 100 µg/mL | MIC (Serratia marcescens): 12.5 µg/mL (≈ 15.2 µM) | MIC (Saccharomyces cerevisiae): > 100 µg/mL | MIC (Acinetobacter baumannii): 3.1 µg/mL (≈ 3.77 µM) | MIC (Shigella sonnei): 3.1 µg/mL (≈ 3.77 µM) | MIC [4]: 0.05 µg/mL (≈ 0.0608 µM) | MIC (M. phocaicum): 25 µg/mL (≈ 30.4 µM) | MIC (M. chitae): 6.3 µg/mL (≈ 7.66 µM) | MIC ([5]; TDR-1): > 100 µg/mL | MIC ([5]; TDR-2): > 100 µg/mL | MIC ([5]; TDR-3): > 100 µg/mL | MIC (M. gilvum): 0.2 µg/mL (≈ 0.243 µM) | MIC (M. massiliense): 0.2 µg/mL (≈ 0.243 µM) | MIC (M. neoaurum): 0.2 µg/mL (≈ 0.243 µM) | MIC (M. phlei): 25 µg/mL (≈ 30.4 µM) | MIC (M. conceptionense): 25 µg/mL (≈ 30.4 µM) | MIC (M. avium): 1.6 µg/mL (≈ 1.94 µM) | MIC (M. colombiense): 0.2 µg/mL (≈ 0.243 µM)

[H]/N=C(/N)N[C@H]1[C@H](O)[C@@H](O)[C@H](O[C@@H]2O[C@@H](C)[C@](O)(C=O)[C@H]2O[C@@H]2O[C@@H](CO)[C@H](O)[C@@H](O)[C@@H]2NC)[C@@H](N/C(N)=N\[H])[C@@H]1O [STR, streptomycin]
MIC (M. fortuitum): 6.3 µg/mL (≈ 10.8 µM) | MIC (M. goodie): 0.2 µg/mL (≈ 0.344 µM) | MIC (M. intracellulare): 0.8 µg/mL (≈ 1.38 µM) | MIC (Shigella boydii; read-out: MIC): 25 µg/mL (≈ 43 µM) | MIC (Proteus vulgaris; read-out: MIC): 25 µg/mL (≈ 43 µM) | MIC (Microsporum canis; read-out: MIC): > 100 µg/mL | MIC ([1]; read-out: MIC): 3.1 µg/mL (≈ 5.33 µM) | MIC (Salmonella Typhimurium; Salmonella Typhimurium, read-out: MIC): 25 µg/mL (≈ 43 µM) | MIC (Citrobacter freundii; read-out: MIC): 1.6 µg/mL (≈ 2.75 µM) | MIC (Escherichia coli O157; read-out: MIC): 6.3 µg/mL (≈ 10.8 µM) | MIC (Escherichia coli; read-out: MIC): 25 µg/mL (≈ 43 µM) | MIC (Bacillus subtilis; read-out: MIC): 0.8 µg/mL (≈ 1.38 µM) | MIC (Enterobacter aerogenes; Enterobacter aerogenes, read-out: MIC): 3.1 µg/mL (≈ 5.33 µM) | MIC (Salmonella Enteritidis; Salmonella Enteritidis, read-out: MIC): 3.1 µg/mL (≈ 5.33 µM) | MIC (Shigella dysenteriae; read-out: MIC): 25 µg/mL (≈ 43 µM) | MIC (Proteus mirabilis; read-out: MIC): 6.3 µg/mL (≈ 10.8 µM) | MIC ([2]; read-out: MIC): 3.1 µg/mL (≈ 5.33 µM) | MIC (Rhizopus oryzae; Rhizopus oryzae, read-out: MIC): > 100 µg/mL | MIC (Candida albicans; read-out: MIC): > 100 µg/mL | MIC (Trichophyton rubrum; read-out: MIC): > 100 µg/mL | MIC (Salmonella Paratyphi A; Salmonella Paratyphi A, read-out: MIC): 6.3 µg/mL (≈ 10.8 µM) | MIC (Cryptococcus neoformans; read-out: MIC): > 100 µg/mL | MIC (Klebsiella pneumoniae; read-out: MIC): 3.1 µg/mL (≈ 5.33 µM) | MIC ([3]; read-out: MIC): 1.6 µg/mL (≈ 2.75 µM) | MIC (Pseudomonas aeruginosa; read-out: MIC): 25 µg/mL (≈ 43 µM) | MIC (Shigella flexneri; read-out: MIC): 25 µg/mL (≈ 43 µM) | MIC (Streptococcus pneumoniae; read-out: MIC): 12.5 µg/mL (≈ 21.5 µM) | MIC (Aspergillus fumigatus; read-out: MIC): > 100 µg/mL | MIC (Serratia marcescens; read-out: MIC): 50 µg/mL (≈ 86 µM) | MIC (Saccharomyces cerevisiae; read-out: MIC): > 100 µg/mL | MIC (Acinetobacter baumannii; read-out: MIC): 6.3 µg/mL (≈ 10.8 µM) | MIC (Shigella sonnei; read-out: MIC): 3.1 µg/mL (≈ 5.33 µM) | MIC ([4]; read-out: MIC): 6.3 µg/mL (≈ 10.8 µM) | MIC (M. phocaicum): 6.3 µg/mL (≈ 10.8 µM) | MIC (M. chitae): > 100 µg/mL | MIC ([5]; TDR-1): 50 µg/mL (≈ 86 µM) | MIC ([5]; TDR-2): > 100 µg/mL | MIC ([5]; TDR-3): 50 µg/mL (≈ 86 µM) | MIC (M. gilvum): 0.2 µg/mL (≈ 0.344 µM) | MIC (M. massiliense): 0.8 µg/mL (≈ 1.38 µM) | MIC (M. neoaurum): 0.8 µg/mL (≈ 1.38 µM) | MIC (M. phlei): 0.2 µg/mL (≈ 0.344 µM) | MIC (M. conceptionense): 3.1 µg/mL (≈ 5.33 µM) | MIC (M. avium): 3.1 µg/mL (≈ 5.33 µM) | MIC (M. colombiense): 0.8 µg/mL (≈ 1.38 µM)
